Like-named read-outs stand apart in the source and are kept apart here.
How the values were obtained:
[1] = test system: HCV genotype 1b (Con1) replicon in HUH-7 cells; assay: HCV replicon luciferase reporter assay, genotype 1b; format: cell-based; details: Hepatitis C virus, Huh-7, 72 h, 3 days incubation, read-out: LE_1b (EC50, range)
Summary of the method: (§1)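 Replicon inhibition for both genotypes was measured as Renilla luciferase signal (EnduRen, 7.5 μM final, 2 h) after 3-day, 37° C exposure of replicon-bearing HUH-7 cells in 4% FCS DMEM, 0.5% DMSO. The 1b construct carries S1179I; the 1a H77 construct carries P1496L and S2204I. Twenty-point, 3-fold dilutions were fitted four-parametrically for EC50, and CC50 was taken from multiplexed Cell Titer-Blue.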

[2] = test system: HCV genotype 1a (H77 strain) replicon in HUH-7 cells; assay: HCV replicon luciferase reporter assay, genotype 1a; format: cell-based; details: Hepatitis C virus, Huh-7, 72 h, 3 days incubation, read-out: LE_1a (EC50, range)
Summary of the method: as §1

[3] = HCV genotype 1b replicon luciferase assay, range class
[4] = HCV genotype 1a replicon luciferase assay, range class
[5] = HCV genotype 1b replicon luciferase
[6] = HCV genotype 1a replicon luciferase

Compound | EC50 [1, 3] [nM] | EC50 [2, 4] [nM] | EC50 [1, 5] [nM] | EC50 [2, 6] [nM]
COc1ccc2c(O[C@@H]3C[C@H]4C(=O)N[C@]5(C(=O)NS(=O)(=O)C6CC6)C[C@H]5/C=C\CC[C@@H](C)C[C@@H](C)[C@H](NC(=O)OCC5(C)CC5)C(=O)N4C3)nc(-c3ccc(OC(C)C)c(F)c3)cc2c1 [Compound 3066, (1-methylcyclopropyl)methyl ((2R,6S,7R,9R,13aS,14aR,16aS,Z)-14a-((cyclopropylsulfonyl)carbamoyl)-2-((3-(3-fluoro-4-isopropoxyphenyl)-6-methoxyisoquinolin-1-yl)oxy)-7,9-dimethyl-5,16-dioxo-1,2,3,5,6,7,8,9,10,11,13a,14,14a,15,16,16a-hexadecahydrocyclopropa[e]pyrrolo[1,2-a][1,4]diazacyclopentadecin-6-yl)carbamate] | < 5.46 | < 5.46 |  | 
CCN(C)c1cc2cc(OC)ccc2c(O[C@@H]2C[C@H]3C(=O)N[C@]4(C(=O)NS(=O)(=O)C5(CF)CC5)C[C@H]4/C=C\CC[C@@H](C)C[C@@H](C)[C@H](NC(=O)OC(C)(C)C(C)(F)F)C(=O)N3C2)n1 [Compound 1139, 3,3-difluoro-2-methylbutan-2-yl((2R,6S,7R,9R,13aS,14aR,16aS,Z)-2-((3-(ethyl(methyl)amino)-6-methoxyisoquinolin-1-yl)oxy)-14a-(((1-(fluoromethyl)cyclopropyl)sulfonyl)carbamoyl)-7,9-dimethyl-5,16-dioxo-1,2,3,5,6,7,8,9,10,11,13a,14,14a,15,16,16a-hexadecahydrocyclopropa[e]pyrrolo[1,2-a][1,4]diazacyclopentadecin-6-yl)carbamate] | 4.82 to 103 | 4.82 to 103 |  | 
C[C@H]1CC/C=C\[C@@H]2C[C@@]2(C(=O)NS(=O)(=O)C2(C)CC2)NC(=O)[C@@H]2C[C@@H](Oc3ncc(OCC(F)F)c4ccccc34)CN2C(=O)[C@@H](NC(=O)O[C@H](C)C(F)(F)F)[C@H](C)C1 [Compound 1035, (R)-1,1,1-trifluoropropan-2-yl ((2R,6S,7R,9S,13aS,14aR,16aS,Z)-2-((4-(2,2-difluoroethoxyl)isoquinolin-1-yl)oxy)-7,9-dimethyl-14a-(((1-methylcyclopropyl)sulfonyl)carbamoyl)-5,16-dioxo-1,2,3,5,6,7,8,9,10,11,13a,14,14a,15,16,16a-hexadecahydrocyclopropa[e]pyrrolo[1,2-a][1,4]diazacyclopentadecin-6-yl)carbamate] | 4.82 to 103 | 4.82 to 103 |  | 
[2H]C([2H])([2H])C(OC(=O)N[C@@H]1C(=O)N2C[C@H](Oc3nnc(OC)c4ccccc34)C[C@H]2C(=O)N[C@]2(C(=O)NS(=O)(=O)C3(C)CC3)C[C@H]2/C=C\CC[C@H](C)C[C@H]1C)(C([2H])([2H])[2H])C(F)(F)F [Compound 5009] |  |  | < 5.46 | < 5.46
[2H]C([2H])([2H])C(OC(=O)N[C@@H]1C(=O)N2C[C@H](Oc3nccc4cc(OC(C)C)ccc34)C[C@H]2C(=O)N[C@]2(C(=O)NS(=O)(=O)C3CC3)C[C@H]2/C=C\CC[C@H](C)C[C@H]1C)(C([2H])([2H])[2H])C([2H])([2H])[2H] [Compound 5154, 1,1,1,3,3,3-hexadeutero-2-(trideuteromethyl)propan-2-yl((2R,6S,7R,9S,13aS,14aR,16aS,Z)-14a-((cyclopropylsulfonyl)carbamoyl)-2-((6-isopropoxyisoquinolin-1-yl)oxy)-7,9-dimethyl-5,16-dioxo-1,2,3,5,6,7,8,9,10,11,13a,14,14a,15,16,16a-hexadecahydrocyclopropa[e]pyrrolo[1,2-a][1,4]diazacyclopentadecin-6-yl)carbamate] |  |  | 4.82 to 103 | 4.82 to 103
[2H]C([2H])([2H])C(C)(OC(=O)N[C@@H]1C(=O)N2C[C@H](Oc3nccc4cc(OC(C)C)ccc34)C[C@H]2C(=O)N[C@]2(C(=O)NS(=O)(=O)C3(C)CC3)C[C@H]2/C=C\CC[C@H](C)C[C@H]1C)C([2H])([2H])[2H] [Compound 5164] |  |  | 4.82 to 103 | 4.82 to 103
CC[C@@H]1C[C@H](C)CC/C=C\[C@@H]2C[C@@]2(C(=O)NS(=O)(=O)C2(C)CC2)NC(=O)[C@@H]2C[C@@H](Oc3nc4c(c5ccccc35)CCCO4)CN2C(=O)[C@H]1NC(=O)OC(C)(C)C(C)(F)F [Compound 6056, 3,3-difluoro-2-methylbutan-2-yl((2R,6S,7R,9R,13aS,14aR,16aS,Z)-2-((2,3-dihydro-1H-pyrano[2,3-c]isoquinolin-6-yl)oxy)-7-ethyl-9-methyl-14a-(((1-methylcyclopropyl)sulfonyl)carbamoyl)-5,16-dioxo-1,2,3,5,6,7,8,9,10,11,13a,14,14a,15,16,16a-hexadecahydrocyclopropa[e]pyrrolo[1,2-a][1,4]diazacyclopentadecin-6-yl)carbamate] |  |  | 0.1 to 0.5 | 1.01 to 5
COc1ccc2c(O[C@@H]3C[C@H]4C(=O)N[C@]5(C(=O)NS(=O)(=O)C6CC6)C[C@H]5/C=C\CC[C@@H](C)C[C@@H](C)[C@H](NC(=O)OC(C)(C)C)C(=O)N4C3)nc(-c3ccc(F)cc3)cc2c1 [Compound 3042, tert-butyl ((2R,6S,7R,9R,13aS,14aR,16aS,Z)-14a-((cyclopropylsulfonyl)carbamoyl)-2-((3-(4-fluorophenyl)-6-methoxyisoquinolin-1-yl)oxy)-7,9-dimethyl-5,16-dioxo-1,2,3,5,6,7,8,9,10,11,13a,14,14a,15,16,16a-hexadecahydrocyclopropa[e]pyrrolo[1,2-a][1,4]diazacyclopentadecin-6-yl)carbamate] | < 5.46 | < 5.46 |  | 
CCCOc1cnc(O[C@@H]2C[C@H]3C(=O)N[C@]4(C(=O)NS(=O)(=O)C5CC5)C[C@H]4/C=C\CC[C@H](C)C[C@@H](C)[C@H](NC(=O)O[C@@H]4C[C@@H]5C[C@@H]5C4)C(=O)N3C2)c2ccccc12 [Compound 5092, (1R,3r,5S)-bicyclo[3.1.0]hexan-3-yl((2R,6S,7R,9S,13aS,14aR,16aS,Z)-14a-((cyclopropylsulfonyl)carbamoyl)-7,9-dimethyl-5,16-dioxo-2-((4-propoxyisoquinolin-1-yl)oxy)-1,2,3,5,6,7,8,9,10,11,13a,14,14a,15,16,16a-hexadecahydrocyclopropa[e]pyrrolo[1,2-a][1,4]diazacyclopentadecin-6-yl)carbamate] |  |  | 4.82 to 103 | > 87.4
COc1ccc2c(O[C@@H]3C[C@H]4C(=O)N[C@]5(C(=O)NS(=O)(=O)C6(C)CC6)C[C@H]5/C=C\CC[C@@H](C)C[C@@H](C)[C@H](NC(=O)O[C@H](C)C(F)(F)F)C(=O)N4C3)nc(-c3ccc(OC(C)C)c(F)c3)cc2c1 [Compound 3076, (R)-1,1,1-trifluoropropan-2-yl ((2R,6S,7R,9R,13aS,14aR,16aS,Z)-2-((3-(3-fluoro-4-isopropoxyphenyl)-6-methoxyisoquinolin-1-yl)oxy)-7,9-dimethyl-14a-(((1-methylcyclopropyl)sulfonyl)carbamoyl)-5,16-dioxo-1,2,3,5,6,7,8,9,10,11,13a,14,14a,15,16,16a-hexadecahydrocyclopropa[e]pyrrolo[1,2-a][1,4]diazacyclopentadecin-6-yl)carbamate] | < 5.46 | < 5.46 |  | 
CC[C@@H]1C[C@H](C)CC/C=C\[C@@H]2C[C@@]2(C(=O)NS(=O)(=O)C2(C)CC2)NC(=O)[C@@H]2C[C@@H](Oc3nccc4c(OC)cccc34)CN2C(=O)[C@H]1NC(=O)OC(C)(C)C(F)(F)F [Compound 3028, 1,1,1-trifluoro-2-methylpropan-2-yl((2R,6S,7R,9R,13aS,14aR,16aS,Z)-7-ethyl-2-((5-methoxyisoquinolin-1-yl)oxy)-9-methyl-14a-(((1-methylcyclopropyl)sulfonyl)carbamoyl)-5,16-dioxo-1,2,3,5,6,7,8,9,10,11,13a,14,14a,15,16,16a-hexadecahydrocyclopropa[e]pyrrolo[1,2-a][1,4]diazacyclopentadecin-6-yl)carbamate] | < 5.46 | < 5.46 |  | 
CC[C@@H]1C[C@H](C)CC/C=C\[C@@H]2C[C@@]2(C(=O)NS(=O)(=O)C2(C)CC2)NC(=O)[C@@H]2C[C@@H](Oc3nccc4c5c(ccc34)OCCO5)CN2C(=O)[C@H]1NC(=O)OC(C)(C)C [Compound 5340, tert-butyl ((2R,6S,7R,9R,13aS,14aR,16aS,Z)-2-((2,3-dihydro-[1,4]dioxino[2,3-f]isoquinolin-7-yl)oxy)-7-ethyl-9-methyl-14a-(((1-methylcyclopropyl)sulfonyl)carbamoyl)-5,16-dioxo-1,2,3,5,6,7,8,9,10,11,13a,14,14a,15,16,16a-hexadecahydrocyclopropa[e]pyrrolo[1,2-a][1,4]diazacyclopentadecin-6-yl)carbamate] |  |  | < 5.46 | < 5.46
COc1cc2cc(-c3ccc(OC(C)C)cc3)nc(O[C@@H]3C[C@H]4C(=O)N[C@]5(C(=O)NS(=O)(=O)C6(C)CC6)C[C@H]5/C=C\CC[C@@H](C)C[C@@H](C)[C@H](NC(=O)O[C@@H]5C[C@@H]6C[C@@H]6C5)C(=O)N4C3)c2cc1F [Compound 3192, (1R,3r,5S)-bicyclo[3.1.0]hexan-3-yl((2R,6S,7R,9R,13aS,14aR,16aS,Z)-2-((7-fluoro-3-(4-isopropoxyphenyl)-6-methoxyisoquinolin-1-yl)oxy)-7,9-dimethyl-14a-(((1-methylcyclopropyl)sulfonyl)carbamoyl)-5,16-dioxo-1,2,3,5,6,7,8,9,10,11,13a,14,14a,15,16,16a-hexadecahydrocyclopropa[e]pyrrolo[1,2-a][1,4]diazacyclopentadecin-6-yl)carbamate] |  |  | < 5.46 | < 5.46

From US9499550B2 (BRISTOL-MYERS SQUIBB COMPANY, priority 2012, dated 2016)
